Series [1] has as its system yellow foxtail (SETLU). In words: Test 5 field trial, postemergence. It is filed as in vivo, Setaria glauca. The settings on record: atrazine 1120, glufosinate 470 or glyphosate 1120 g a.i./ha alone. The text has this:
(§1) Corn seeds (hybrid ‘Pioneer 38H69’) were planted in mid spring season, 5.1 cm deep in a silty clay loam soil having 3% organic matter and a pH of 6.5. Plots were 9.1 m long by 3.0 m wide with rows spaced 76 cm apart. The field was managed using conventional tillage practices. […] All treatments included a surfactant except glufosinate treatments, both alone and in combination. […] Results are summarized in Table 5 and are the means of the three replicates.

For series [2], the system named is corn (ZEAMD). Put plainly: Test 6 field trial, postemergence. Format: in vivo, Zea mays ssp. indentata. The settings on record: 470 g a.i./ha. The source says: (§2) Corn seeds (hybrid ‘Pioneer 35Y62’) were planted in mid spring season, 3.8 cm deep in a silt loam soil having 4% organic matter and a pH of 5.8. Plots were 10.7 m long by 1.5 m wide with rows spaced 76 cm apart. Seeds were spaced 18 cm apart within the rows. The field was managed using conventional tillage practices. […] All treatments included a surfactant except glufosinate treatments, both alone and in combination. […] Results are summarized in Table 6 and are the means of the three replicates.

Series [3] deals with large crabgrass (DIGSA). In words: Test 5 field trial, postemergence. It is filed as in vivo, Digitaria sanguinalis. The following applies: atrazine 1120, glufosinate 470 or glyphosate 1120 g a.i./ha alone.
Description: as §1

The test system of series [4] is redroot pigweed (AMARE). In words: Test 6 field trial, postemergence. The settings on record: 470 g a.i./ha. Format: in vivo, Amaranthus retroflexus.
Description: as §2

The subject of series [5] is Pennsylvania smartweed (POLPY). In words: Test 6 field trial, postemergence. The settings on record: 470 g a.i./ha. Format: in vivo, Polygonum pensylvanicum.
Description: as §2

Series [6] concerns yellow foxtail (SETLU). In words: Test 6 field trial, postemergence. The settings on record: 470 g a.i./ha. Format: in vivo, Setaria glauca.
Description: as §2

Series [7] has as its system shepherd's purse (CAPBP). In words: Test 5 field trial, postemergence. The settings on record: atrazine 1120, glufosinate 470 or glyphosate 1120 g a.i./ha alone. It is filed as in vivo, Capsella bursa-pastoris.
Description: as §1

The subject of series [8] is velvetleaf (ABUTH). Put plainly: Test 5 field trial, postemergence. Format: in vivo, Abutilon theophrasti. The settings on record: atrazine 1120, glufosinate 470 or glyphosate 1120 g a.i./ha alone.
Description: as §1

Series [9] deals with common lambsquarters (CHEAL). In words: Test 6 field trial, postemergence. It is filed as in vivo, Chenopodium album. The settings on record: 470 g a.i./ha.
Description: as §2

Series [10] relates to velvetleaf (ABUTH). In words: Test 6 field trial, postemergence. Format: in vivo, Abutilon theophrasti. The settings on record: 470 g a.i./ha.
Description: as §2

The test system of series [11] is common lambsquarters (CHEAL). Put plainly: Test 5 field trial, postemergence. It is filed as in vivo, Chenopodium album. The settings on record: atrazine 1120, glufosinate 470 or glyphosate 1120 g a.i./ha alone.
Description: as §1

The subject of series [12] is common ragweed (AMBEL). In words: Test 5 field trial, postemergence. The settings on record: atrazine 1120, glufosinate 470 or glyphosate 1120 g a.i./ha alone. It is filed as in vivo, Ambrosia artemisiifolia.
Description: as §1

For series [13], the system named is field pennycress (THLAR). Put plainly: Test 5 field trial, postemergence. It is filed as in vivo, Thlaspi arvense. The settings on record: atrazine 1120, glufosinate 470 or glyphosate 1120 g a.i./ha alone.
Description: as §1

For series [14], the system named is giant foxtail (SETFA). Put plainly: Test 6 field trial, postemergence. Format: in vivo, Setaria faberi. The settings on record: 470 g a.i./ha.
Description: as §2

Series [15] has as its system corn (ZEAMD). Put plainly: Test 5 field trial, postemergence. The following applies: atrazine 1120, glufosinate 470 or glyphosate 1120 g a.i./ha alone. It is filed as in vivo, Zea mays ssp. indentata.
Description: as §1

Series [16] deals with giant foxtail (SETFA). In words: Test 5 field trial, postemergence. Format: in vivo, Setaria faberi. The following applies: atrazine 1120, glufosinate 470 or glyphosate 1120 g a.i./ha alone.
Description: as §1

The test system of series [17] is barley (HORVX). In words: Test 30 growth chamber, postemergence. Format: in vivo, Hordeum vulgare. The method, then: (§3) A growth chamber test was conducted to evaluate the effects on the plant species wheat (TRZAW, Triticum aestivum L.) and barley (HORVX, Hordeum vulgare L.) with mixtures of Compound 1 and Compound 2 with glycerol. Wheat and barley seeds were planted in a sandy loam soil having 0.9% organic matter and a pH of 6.3. […] Wheat and barley plants were treated postemergence at the two leaf growth stage for Compound 1 and at the three leaf growth stage for Compound 2. Each treatment was replicated one time. […] Plants were watered as needed. […] Colby's Equation was used to determine herbicidal effects expected from the mixtures.

The test system of series [18] is wheat (TRZAW). Put plainly: Test 30 growth chamber, postemergence. Format: in vivo, Triticum aestivum. As to the method: as §3
Setting [19] is: 17 DAA, Glycerol 7100 g a.i./ha.
Where [20] appears, read: 17 DAA, Glycerol 14200 g a.i./ha.
Setting [21] is: 18 DAA, Glycerol 7100 g a.i./ha.
[22] abbreviates: 18 DAA, Glycerol 14200 g a.i./ha.

Turning to `CP(=O)(O)CCC(N)C(=O)O` (stereo not shown) [Glufosinate], the “SETLU Obs” value in series [1] (16 DAA) is on record as 98%; in series [1] (31 DAA) it was 90%; in series [6] (14 DAA) it was 95%; in series [6] (28 DAA), 63%. In addition, the “ZEAMD Obs” value in series [2] (14 DAA), in series [2] (28 DAA), in series [15] (16 DAA) and in [15] (31 DAA) was 0% throughout. Moreover, the figures for the “DIGSA Obs” value in [3] (16 DAA) and in series [3] (31 DAA) were 99% and 94%, respectively. Further, the “AMARE Obs” value in [4] (14 DAA) and in series [4] (28 DAA) was 100% throughout. The “POLPY Obs” value in series [5] (14 DAA) and in series [5] (28 DAA) was 98% each time. Besides, the “CAPBP Obs” value in [7] (16 DAA) and in series [7] (31 DAA) was 100% in each case. Besides, the “ABUTH Obs” value in series [8] (16 DAA) was determined as 33%; in series [8] (31 DAA) it was 27%; in series [10] (14 DAA), 0%; in series [10] (28 DAA), 0%. Further, the “CHEAL Obs” value in [9] (14 DAA) is recorded as 100%; in series [9] (28 DAA), 100%; in [11] (16 DAA), 87%; in series [11] (31 DAA) it was 79%. In addition, the “AMBEL Obs” value in series [12] (16 DAA) and in series [12] (31 DAA) was 100% each time. Also, the “THLAR Obs” value in series [13] (16 DAA) and in series [13] (31 DAA) was 100% in each case. The “SETFA Obs” value in series [14] (14 DAA) turned out to be 99%; in [14] (28 DAA), 99%; in [16] (16 DAA), 100%; in [16] (31 DAA), 99%.

Consider `OCC(O)CO` [Glycerol], for which the HORVX Obs in series [17] (setting [19]), in series [17] (setting [20]), in [17] (setting [21]) and in [17] (setting [22]) was 0% in each case. Further, the TRZAW Obs in series [18] (setting [19]), in series [18] (setting [20]), in series [18] (setting [21]) and in series [18] (setting [22]) was 0% throughout.

Source of the values: patent publication US20100285959A1, “HERBICIDAL MIXTURES” (priority 2006, published 2010).
